Marks after values point to notes of the source that are not given here.
Key:
[1] = system: P. aeruginosa PAO1 biofilm; test: Biofilm eradication; assay type: cell-based, Pseudomonas aeruginosa; settings: 20 µM, 4 h
Description: (§1) Biofilm eradication assay was performed according to the method of Christensen et al. with modifications. A standardized bacterial (OD = 0.6) suspension of 100 µL was spotted into a 96-well polystyrene plate. They were incubated for 24 h at 37 °C. Cultures were removed, the plate was washed and then concentrations of QAS ([…]) were added, incubated for 4 h at 37 °C with 100 rpm shaking. The wells were washed with miliQ and fixed at 60 °C for 20 min. The wells were […] with 0.1% crystal violet solution for 5 min. The wells were washed with miliQ until the unfixed dye was completely eluted. The absorbance at λ = 590 nm was measured using a reader (Bio-Rad Universal Hood II). The positive control was an untreated biofilm. Three independent test trials were performed.

[2] = system: S. aureus MRSA R98; test: MIC/MBC microdilution; assay type: cell-based, Staphylococcus aureus; settings: for Minimal bactericidal concentration (*MBC): 99.9% reduction; for Minimal inhibitory concentration (MIC): 24 h, 37 °C, >90% growth inhibition
[3] = system: S. aureus ATCC 6538; test: MIC/MBC microdilution; assay type: cell-based, Staphylococcus aureus; settings: S. aureus ATCC 6538; for Minimal bactericidal concentration (*MBC): 99.9% reduction; for Minimal inhibitory concentration (MIC): 24 h, 37 °C, >90% growth inhibition
[4] = system: E. coli ATCC 11229; test: MIC/MBC microdilution; assay type: cell-based, Escherichia coli; settings: E. coli ATCC 11229; for MBC: 99.9% reduction, read-out: Minimal bactericidal concentration (*MBC); for MIC: 24 h, 37 °C, >90% growth inhibition, read-out: Minimal inhibitory concentration (MIC)
[5] = system: E. coli H64; test: MIC/MBC microdilution; assay type: cell-based, Escherichia coli
[6] = system: S. epidermidis B374; test: Adhesion to polystyrene plate; assay type: cell-based, Staphylococcus epidermidis; settings: 160 µM
Description: (§2) Adhesion analysis to polystyrene surfaces was determined according to the method of Rodrigues et al. with modifications. Polystyrene 96-well plates were incubated with the respective compound concentrations (10–1280 µM) for 4 h at 37 °C with 100 rpm shaking. The plates were then washed with miliQ and inoculated with 100 µL of bacterial suspension (OD = 0.4–0.6). Plates were incubated for 6 h at 37 °C with 100 rpm shaking. Wells were rinsed and fixed for 20 min at 60 °C. They were then […] with 0.1% crystal violet solution for 5 min. The wells were washed with miliQ until the unfixed dye was completely eluted. The absorbance at λ = 590 nm was measured using a reader (Bio-Rad Universal Hood II). The positive control was a surface not treated with QAS. Three independent trials were performed.

[7] = system: Salmonella typhimurium TA100; test: Mutagenicity (Ames test); assay type: cell-based; settings: for Number of colonies: ± SD
Procedure, shortened: (§3)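 His-deficient TA98 and TA100 strains were plated with test compound on Davis minimal medium and incubated 48 h at 37 °C before revertant colonies were counted. Mutagenicity ratio is revertants with compound over spontaneous revertants (untreated control); MR ≥ 1.7 is read as mutagenic. Three replicate runs.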

[8] = system: Salmonella typhimurium TA98; test: Mutagenicity (Ames test); assay type: cell-based; settings: for Number of colonies: ± SD
Procedure, shortened: as §3

[9] = system: P. aeruginosa PAO1; test: MIC/MBC microdilution; assay type: cell-based, Pseudomonas aeruginosa
[10] = system: P. aeruginosa ATCC 27853; test: MIC/MBC microdilution; assay type: cell-based, Pseudomonas aeruginosa
[11] = system: S. epidermidis ATCC 35984; test: Adhesion to stainless steel; assay type: cell-based, Staphylococcus epidermidis; settings: 160 µM
[12] = system: S. epidermidis B374 biofilm; test: Biofilm eradication; assay type: cell-based, Staphylococcus epidermidis; settings: 160 µM, 4 h
Description: as §1

[13] = system: P. aeruginosa PAO1; test: Adhesion to stainless steel; assay type: cell-based, Pseudomonas aeruginosa
[14] = system: S. epidermidis SI8; test: MIC/MBC microdilution; assay type: cell-based, Staphylococcus epidermidis
[15] = system: S. epidermidis ATCC 35984; test: MIC/MBC microdilution; assay type: cell-based, Staphylococcus epidermidis
[16] = system: S. epidermidis B374; test: MIC/MBC microdilution; assay type: cell-based, Staphylococcus epidermidis; settings: S. epidermidis B374; for Minimal bactericidal concentration (*MBC): 99.9% reduction; for Minimal inhibitory concentration (MIC): 24 h, 37 °C, >90% growth inhibition
[17] = system: S. epidermidis B374 biofilm; test: Biofilm-oriented antiseptics test (BOAT); assay type: cell-based, Staphylococcus epidermidis; settings: 640 µM
Source text: Colonies were then counted.

[18] = Critical micelle concentration by conductometric measurements; assay type: physicochemical; settings: aqueous solution, 25 °C
Procedure, shortened: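 Specific conductivity of at least 15 concentrations per cationic surfactant measured at constant 25 °C without temperature compensation, conductometer calibrated with KCl standards. CMC taken as the discontinuity point in the conductivity vs concentration plot.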

[19] = system: P. aeruginosa PAO1; test: Adhesion to glass; assay type: cell-based, Pseudomonas aeruginosa; settings: concentration not given
[20] = system: S. epidermidis ATCC 35984; test: Adhesion to polystyrene plate; assay type: cell-based, Staphylococcus epidermidis; settings: concentration not given
Description: as §2

[21] = system: S. epidermidis ATCC 35984 biofilm; test: Biofilm eradication; assay type: cell-based, Staphylococcus epidermidis; settings: 10 µM, 4 h
Description: as §1

[22] = system: S. epidermidis B374; test: Adhesion to stainless steel; assay type: cell-based, Staphylococcus epidermidis; settings: Staphylococcus epidermidis, 1280 µM, ranges given over several strains
[23] = system: P. aeruginosa PAO1; test: Adhesion to polystyrene plate; assay type: cell-based, Pseudomonas aeruginosa; settings: concentration not given
Description: as §2

[24] = 24 h, 37 °C, >90% growth inhibition

Row | SMILES | biofilm eradication [1] | Minimal bactericidal concentration (*MBC) [2] | Minimal inhibitory concentration (MIC) [2] | Minimal bactericidal concentration (*MBC) [3] | Minimal inhibitory concentration (MIC) [3] | MBC [4] | MIC [4] | reduction of adhesion to polystyrene [6] | Number of colonies ([7]; ¼ MIC) | Mutagenicity index ([7]; ½ MIC) | Number of colonies ([7]; ½ MIC) | Mutagenicity index ([8]; ¼ MIC) | Number of colonies ([8]; ¼ MIC) | Mutagenicity index ([8]; ½ MIC) | Number of colonies ([8]; ½ MIC) | reduction of adhesion to stainless steel [11] | Minimal bactericidal concentration (*MBC) [16] | Minimal inhibitory concentration (MIC) [16] | CMC [18] | other results
1 | CC(=O)[O-].CCCCCCCCCCCCCCCC(=O)N(C)CCC[N+](C)(C)C [AcC16] | 50–60% | 10 *10 µM | 10 *10 µM | 80 *80 µM | 80 *80 µM | 160 µM | 80 µM | approximately 44% | 107.5 ± 2.1 | 0.66 | 132.5 ± 13.4 | 0.93 | 23.7 ± 4.7 | 1.11 | 28.3 ± 6.4 | approximately 93% | 40 *40 µM | 40 *40 µM | 0.0016 mol/L | MIC ([5]; Escherichia coli, H64, 24 h, E. coli H64, 24 h, 37 °C, >90% growth inhibition, read-out: Minimal inhibitory concentration (MIC)): 160 µM; MBC ([5]; Escherichia coli, H64, E. coli H64, 99.9% reduction, read-out: Minimal bactericidal concentration (*MBC)): 320 µM; Mutagenicity index ([7]; ¼ MIC): 0.54; MBC ([9]; Pseudomonas aeruginosa, 99.9% reduction, read-out: Minimal bactericidal concentration (*MBC)): > 1280 µM; MIC ([9]; Pseudomonas aeruginosa, 24 h, 37 °C, >90% growth inhibition, read-out: Minimal inhibitory concentration (MIC)): > 1280 µM; MIC ([10]; Pseudomonas aeruginosa, ATCC27853, 24 h, P. aeruginosa ATCC 27853, 24 h, 37 °C, >90% growth inhibition, read-out: Minimal inhibitory concentration (MIC)): > 1280 µM; MBC ([10]; Pseudomonas aeruginosa, ATCC27853, P. aeruginosa ATCC 27853, 99.9% reduction, read-out: Minimal bactericidal concentration (*MBC)): > 1280 µM; biofilm eradication [12]: 70–80%; reduction of adhesion to stainless steel ([13]; P. aeruginosa PAO1, 160 µM): 58%; MBC ([14]; Staphylococcus epidermidis, 99.9% reduction, read-out: Minimal bactericidal concentration (*MBC)): 10 µM; MIC ([14]; Staphylococcus epidermidis, 24 h, 37 °C, >90% growth inhibition, read-out: Minimal inhibitory concentration (MIC)): 10 µM; MBC ([15]; Staphylococcus epidermidis, ATCC35984, 99.9% reduction, read-out: Minimal bactericidal concentration (*MBC)): 640 µM; MIC ([15]; Staphylococcus epidermidis, ATCC35984, 24 h, 37 °C, >90% growth inhibition, read-out: Minimal inhibitory concentration (MIC)): 640 µM; cell survival in biofilm (BOAT) ([17]; 30 min): 30%; cell survival in biofilm (BOAT) ([17]; 60 min): 9.5%
2 | CCCCCCCCCCCCCCCC(=O)N(C)CCC[N+](C)(C)C.[Br-] [BrC16] | 50–60% | 320 *320 µM | 320 *320 µM | 320 *320 µM | 320 *320 µM | 1280 µM | 640 µM | approximately 85% | 151.3 ± 3.5 | 1.06 | 134 ± 1 | 2.76 | 70.5 ± 12 | 1.84 | 47 ± 14.1 | 77% | 10 *10 µM | 10 *10 µM | 0.00073 mol/L | reduction of adhesion to glass [19]: approximately 20%; Minimal bactericidal concentration (*MBC) ([5]; E. coli H64, 99.9% reduction): 160 *160 µM; Minimal inhibitory concentration (MIC) ([5]; E. coli H64, 24 h, 37 °C, >90% growth inhibition): 160 *160 µM; reduction of adhesion to polystyrene [20]: did not reduce the adhesion; mutagenicity index (MR) ([7]; base pair substitution type mutations, MR >= 1.7 indicates mutagenic potential): < 1.7; mutagenicity index (MR) ([8]; reading frame shift type mutation, MR >= 1.7 indicates mutagenic potential): above 1.7; Minimal bactericidal concentration (*MBC) ([9]; 99.9% reduction): > 1280 * > 1280 µM; Minimal inhibitory concentration (MIC) [9, 24]: > 1280 * > 1280 µM; Minimal bactericidal concentration (*MBC) ([10]; P. aeruginosa ATCC 27853, 99.9% reduction): > 1280 * > 1280 µM; Minimal inhibitory concentration (MIC) ([10]; P. aeruginosa ATCC 27853, 24 h, 37 °C, >90% growth inhibition): > 1280 * > 1280 µM; biofilm destruction [21]: approximately 40%; inhibition at 1280 µM ([13]; Pseudomonas aeruginosa, PAO1, read-out: inhibition of adhesion to stainless steel): 17 to 22%; Minimal bactericidal concentration (*MBC) ([14]; 99.9% reduction): 10 *10 µM; Minimal inhibitory concentration (MIC) [14, 24]: 10 *10 µM; Minimal bactericidal concentration (*MBC) ([15]; 99.9% reduction): 640 *640 µM; Minimal inhibitory concentration (MIC) [15, 24]: 640 *640 µM; inhibition at 1280 µM [22]: 17 to 22%; reduction of adhesion to polystyrene [23]: did not reduce the adhesion
